Data reported in patent US7960133B2, “Methods of diagnosing leiomyoma by measuring catechol-O-methyltransferase” (The Board of Regents of the University of Texas System, priority 2003, dated 2011).

Legend:
Format in all cases: cell-based, rat
VEGF = experiment: Western blot of VEGF protein expression in ELT3 cells; settings: 48 h, maximal inhibition at 10 μM
Description: (§1) The Eker rat tumor-derived ELT-3 uterine leiomyoma cells were grown in DMEM medium supplemented with 10% fetal bovine serum and 1% antibiotics (containing 100 U/ml penicillin and 100 μg/ml streptomycin. The cells were maintained in the 100 mm tissue culture dishes at 37° C. air with 5% CO2 and 95% humidity. When experiments required the addition of exogenous compounds, cells were weaned by culturing for 48 h in phenol red-free medium containing 10% Charcoal-stripped fetal calf serum. For proliferation assays, cells were plated onto 24-well plates in DMEM at a density of 4000 cells/well. The cells allowed to attach overnight and then treated with E2 (10^−6 to 10^−10 M) without COMT-inhibitor or with 10 μM of COMT-inhibitor, 2-OHE2 (10^−5 to 10^−10 M) without COMT-I, or with 10 μM COMT-I, 2-OHE2, or 2-MeOHE2 (10^−5 to 10^−10 M). Control cells were treated with medium containing 10 μl of absolute ethanol. […]
(§2) Immunoreactive proteins corresponding to VEGF, Cyclin D, Bcl-2, Bax, and β-actin were identified from total protein by western immunoblotting using specific monoclonal antibodies. […] After a 10-min spin at 10,000×g, the supernatant containing the total cell lysates were quantified using BCA Protein Assay Reagent (Pierce, Rockford, Ill.). […] The expression level of target proteins was quantitated densitometrically and normalized using β-actin expression.

Bax = experiment: Western blot of Bax protein expression in ELT3 cells; settings: 48 h
Description: as §1, §2

cyclin D1 = experiment: Western blot of cyclin D1 protein expression in ELT3 cells; settings: 48 h, maximal inhibition at 10 μM
Description: as §1, §2

Bcl2 = experiment: Western blot of Bcl2 protein expression in ELT3 cells; settings: 48 h, maximal inhibition at 10 μM
Description: as §1, §2

ELT3 cells = experiment: ELT3 cell proliferation assay (Hoechst 33258 DNA quantitation); settings: for reduction in cell proliferation compared to the untreated control / cell proliferation increase from the control: estrogen-free
Description: The Eker rat tumor-derived ELT-3 uterine leiomyoma cells were grown in DMEM medium supplemented with 10% fetal bovine serum and 1% antibiotics (containing 100 U/ml penicillin and 100 μg/ml streptomycin. The cells were maintained in the 100 mm tissue culture dishes at 37° C. air with 5% CO2 and 95% humidity. When experiments required the addition of exogenous compounds, cells were weaned by culturing for 48 h in phenol red-free medium containing 10% Charcoal-stripped fetal calf serum. For proliferation assays, cells were plated onto 24-well plates in DMEM at a density of 4000 cells/well. The cells allowed to attach overnight and then treated with E2 (10^−6 to 10^−10 M) without COMT-inhibitor or with 10 μM of COMT-inhibitor, 2-OHE2 (10^−5 to 10^−10 M) without COMT-I, or with 10 μM COMT-I, 2-OHE2, or 2-MeOHE2 (10^−5 to 10^−10 M). Control cells were treated with medium containing 10 μl of absolute ethanol. After 48 hours, the cells were harvested for the proliferation assay. For western blot analysis, the cells were seeded in 100 mm plates at final density of 2×10^6 cells/plate. […] Cells were harvested 48 hours after treatment and cell lysates were used for western blotting. A fluorometric assay, implementing Hoechst 33258 (bisbenzimide), was used for DNA quantitation. ELT3 cells (5×10^3 cells/well) were plated (described above). The cells were allowed to attach overnight at 37° C., and then the media were replaced with media containing the appropriate treatment. Control cells were treated with a 1:1000 dilution of absolute ethanol. The cells were incubated with the treatments for 48 hours, followed by cell lysis and DNA content determination using Hoechst dye solution (10 μl/100 ml distilled H2O). Fluorescence was measured (DyNA Quant 200; Hoefer Pharmacia Biotech) after excitation at 365 nm and fluorescence at 458 nm. Calf thymus DNA was used as a standard to determine DNA concentration.

[1] = system: estrogen response elements-luciferase reporter (AdERE-Luc) in ELT3 cells; experiment: AdERE-Luc reporter luciferase activity in ELT3 cells; settings: for luciferase activity reduction compared to E2 (10^−8 M) alone: plus E2 10^−8 M
Text: Transfection of ELT3 cells with recombinant ERE-Luciferase adenovirus vector was achieved by maintaining ELT 3 cells as described above. For infection with estrogen response elements-luciferase reporter adenoviral vector (Ad ERE-Luc), the cells were allowed to grow to 60-70% confluence and then infected with Ad ERE-Luc vector at multiplicity of infection (MOI) of 100 plaque-forming units (PFU)/cell for two hours in infection medium containing 2% FCS and 1% penicillin/streptomycin. Then, the infection media were removed and replaced with regular media. The transduction efficiency of the adenoviral vectors in ELT3 cells was tested using Ad LacZ vector. β-Galactosidase expression was detected in 95-100% of ELT3 cells at 48 h after infection with Ad LacZ at a 100 PFU. Therefore, subsequent experiments were performed using similar amounts (100 PFU/cell) of recombinant Ad ERE-Luc vector.
ELT3 cells transfected with AdERE-Luc were treated with E2 and with or without COMT-I or with different concentrations of 2-OHE2 (10^−10 to 10^−6 M) with or with out COMT-I (10 μM). After 48 h incubation with chemicals, cells were harvested with 100 μl of cell lysis buffer (Promega). Luciferase activity was determined using Luciferase Assay Kit (Promega) according to the manufacturer's instructions.

[2] = COMT inhibitor 10^−5 M co-treatment, P<0.05

What does the source list for `COc1cc2c(cc1O)CC[C@@H]1[C@@H]2CC[C@]2(C)[C@@H](O)CC[C@@H]12` [2-MeOHE2, 2-Methoxyestradiol]?
VEGF protein expression (VEGF): concentration-dependent inhibition; Bax protein expression (Bax): gradient increase; cyclin D1 protein expression (cyclin D1): concentration-dependent inhibition; Bcl2 protein expression (Bcl2): concentration-dependent inhibition; cell proliferation reduction compared to the corresponding control (ELT3 cells; 2-MeOHE2 5×10^−7 M): 30%; cell proliferation increase from the untreated control (ELT3 cells; 2-MeOHE2 5×10^−8 M): 31%; cell proliferation reduction compared to the corresponding control (ELT3 cells; 2-MeOHE2 10^−5 M): 65%; cell proliferation reduction compared to the corresponding control (ELT3 cells; 2-MeOHE2 10^−6 M): 51%; cell proliferation reduction compared to the corresponding control (ELT3 cells; 2-MeOHE2 10^−7 M): 16%; cell proliferation increase from the untreated control (ELT3 cells; 2-MeOHE2 10^−8 M): 24%; cell proliferation increase from the untreated control (ELT3 cells; 2-MeOHE2 10^−9 M): 20%; cell proliferation increase from the untreated control (ELT3 cells; 2-MeOHE2 10^−10 M): 15%

For `C[C@]12CC[C@@H]3c4cc(O)c(O)cc4CC[C@H]3[C@@H]1CC[C@@H]2O` [2-OHE2, 2-Hydroxyestradiol], which “luciferase activity reduction compared to E2 (10^−8 M) alone” value (“luciferase activity reduction” below) ([1]; 2-OHE2 10^−6 M) is on record?
The value was 39%.

And the “luciferase activity reduction” value ([1]; 2-OHE2 10^−7 M)?
Its value is 32%.

And the “luciferase activity reduction” value ([1]; 2-OHE2 10^−8 M)?
The value was 32%.

What about the “luciferase activity reduction” value ([1]; 2-OHE2 10^−10 to 10^−9 M) of the same molecule?
Its value is 30%.

What about the AdERE-Luc activity ([1]; 2-OHE2, E2-free environment, concentration dependent) of the same molecule?
Its AdERE-Luc activity is “up-regulated”.

And the “reduction in cell proliferation compared to the untreated control” value (ELT3 cells; 2-OHE2 10^−6 M)?
Its value is 21%.

And the “reduction in cell proliferation compared to the untreated control” value (ELT3 cells; 2-OHE2 10^−7 M)?
Its value is 16%.

And the cell proliferation increase (ELT3 cells; 2-OHE2 10^−8 M in the presence of E2 (10^−8 M))?
The cell proliferation increase was 33%.

What about the “cell proliferation increase from the control” value (ELT3 cells; 2-OHE2 10^−8 M) of the same molecule?
Its value is 61%.

What about the cell proliferation increase (ELT3 cells; 2-OHE2 10^−9 M in the presence of E2 (10^−8 M)) of the same molecule?
Its cell proliferation increase is 24%.

And the “cell proliferation increase from the control” value (ELT3 cells; 2-OHE2 10^−9 M)?
The value was 54%.

What about the cell proliferation increase (ELT3 cells; 2-OHE2 10^−10 M in the presence of E2 (10^−8 M)) of the same molecule?
The cell proliferation increase was 10%.

And the “cell proliferation increase from the control” value (ELT3 cells; 2-OHE2 10^−10 M)?
Its value is 19%.

Which “effect on E2-induced AdERE-luciferase at higher E2 concentrations” value ([1]; COMT inhibitor 10^−5 M, E2 10^-6 and 10^-5 M, P=0.056 and P=0.17) does the source give for `O=C(c1cc(O)c(O)c([N+](=O)[O-])c1)c1ccccc1F` [COMT inhibitor, R0 41-0960] here?
Its value is “less pronounced”.

And the “AdERE-luciferase compared to treatment with E2 alone” value ([1]; COMT inhibitor 10^−5 M, E2 10^-10 to 10^-7 M, P<0.05)?
The value was “significant down regulation”.

And the “effect on the antiproliferative effect of high dose 2-OHE2” value (ELT3 cells; [2])?
Its value is “augmented”.

And the “effect on the proliferative effect of low dose 2-OHE2” value (ELT3 cells; [2])?
The value was “consistently antagonized”.

And the “effect on E2-induced cell proliferation” value (ELT3 cells; COMT inhibitor 10^−5 M with E2 10^−10 to 10^−6 M, P<0.05 at all estrogen concentrations)?
Its value is “consistently inhibited”.

For `C[C@]12CC[C@@H]3c4ccc(O)cc4CC[C@H]3[C@@H]1CC[C@@H]2O` [E2, β-Estradiol], which “maximum up-regulation of AdERE-Luciferase” value ([1]; E2 10^−8 M) is on record?
The value was 6 fold.

And the “concentration of maximum effect on ELT3 proliferation” value (ELT3 cells; E2 alone, 48 h)?
The value was 10^−8 M.
